Results as given in PubChem BioAssay AID248 (DTP/NCI, 2004).
Values joined by “and” are separate entries in the source; they are usually repeats but may differ in a detail not shown here. Equal entries are not always repeated. Inconclusive results and toxic doses are left out.

System: L1210 leukemia ip in BDF1 mice, survival T/C
Experiment: NCI In Vivo Anticancer Drug Screen. Data for tumor model L1210 Leukemia (intraperitoneal) in B6D2F1 (BDF1) mice
Details: endpoint: mean survival time, higher = longer survival
Method in brief: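 Read-out is survival time, reported as the treated-group measurement over the vehicle-control measurement.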

[1] = dose: 25.0 mg/kg/injection, schedule: Q01DX009 (ip), vehicle: saline
[2] = dose: 50.0 mg/kg/injection, schedule: Q01DX009 (ip), vehicle: saline
[3] = dose: 100.0 mg/kg/injection, schedule: Q04DX003 (ip), vehicle: saline
[4] = dose: 50.0 mg/kg/injection, schedule: Q01DX001 (ip), vehicle: saline
[5] = dose: 100.0 mg/kg/injection, schedule: Q01DX001 (ip), vehicle: saline
[6] = dose: 100.0 mg/kg/injection, schedule: Q04DX003 (ip), vehicle: saline with Tween-80
[7] = dose: 200.0 mg/kg/injection, schedule: Q04DX003 (ip), vehicle: saline with Tween-80
[8] = dose: 6.25 mg/kg/injection, schedule: Q01DX009 (ip), vehicle: saline
[9] = dose: 100.0 mg/kg/injection, schedule: Q01DX001 (ip), vehicle: saline with Tween-80
[10] = dose: 100.0 mg/kg/injection, schedule: Q01DX009 (ip), vehicle: Klucel (hydroxypropylcellulose) (HPC)
[11] = dose: 200.0 mg/kg/injection, schedule: Q01DX009 (ip), vehicle: Klucel (hydroxypropylcellulose) (HPC)
[12] = dose: 100.0 mg/kg/injection, schedule: Q04DX003 (ip), vehicle: Klucel (hydroxypropylcellulose) (HPC)
[13] = dose: 200.0 mg/kg/injection, schedule: Q04DX003 (ip), vehicle: Klucel (hydroxypropylcellulose) (HPC)
[14] = dose: 400.0 mg/kg/injection, schedule: Q01DX009 (ip), vehicle: Klucel (hydroxypropylcellulose) (HPC)
[15] = dose: 25.0 mg/kg/injection, schedule: Q01DX009 (ip), vehicle: Klucel (hydroxypropylcellulose) (HPC)
[16] = dose: 50.0 mg/kg/injection, schedule: Q01DX009 (ip), vehicle: Klucel (hydroxypropylcellulose) (HPC)
[17] = dose: 100.0 mg/kg/injection, schedule: Q01DX009 (ip), vehicle: saline with Tween-80
[18] = dose: 200.0 mg/kg/injection, schedule: Q01DX009 (ip), vehicle: saline with Tween-80

In the case of `COC1c2cnc(C)n2C=CN1C(C)=O` (configuration not stated), the T/C [1] is reported as 102 % of control, the T/C [2] is reported as 100 % of control and the T/C (dose: 100.0 mg/kg/injection, schedule: Q01DX009 (ip), vehicle: saline) is reported as 91 % of control. For the same compound, the T/C [3] was 108 % of control and the T/C (dose: 200.0 mg/kg/injection, schedule: Q04DX003 (ip), vehicle: saline) was 98 % of control.
For `CCN1CCCCCCCCCC(=N/O)/C(=N\O)C1`, the T/C [4] was 101 % of control, the T/C [5] was 103 % of control and the T/C (dose: 200.0 mg/kg/injection, schedule: Q01DX001 (ip), vehicle: saline) was 95 % of control.
In the case of `Cc1ccc(C(c2ccc(C)cc2)C(Cl)(Cl)Cl)cc1`, the T/C (dose: 100.0 mg/kg/injection, schedule: Q01DX001 (ip), vehicle: saline sonified) is reported as 93 % of control, the T/C (dose: 200.0 mg/kg/injection, schedule: Q01DX001 (ip), vehicle: saline sonified) is reported as 96 % of control and the T/C (dose: 400.0 mg/kg/injection, schedule: Q01DX001 (ip), vehicle: saline sonified) is reported as 88 % of control.
With `CC(C(=O)O)N1C(=O)C2C3C=CC(C3)C2C1=O` (configuration not stated) the T/C [6] was 94 % of control, the T/C [7] was 102 % of control and the T/C (dose: 400.0 mg/kg/injection, schedule: Q04DX003 (ip), vehicle: saline with Tween-80) was 97 % of control.
In the case of `O=C1OC(c2ccc3c(c2)OCO3)C(C(=O)CCl)c2ccccc21` (configuration not stated), the T/C [6] is reported as 97 % of control and the T/C [7] is reported as 93 % of control.
`NS(=O)(=O)c1ccc(Cc2[nH]c(=O)[nH]c(=O)c2Br)cc1` was tested, and the T/C (dose: 25.0 mg/kg/injection, schedule: Q01DX001 (ip), vehicle: saline) was 101 % of control, the T/C [4] was 95 % of control and the T/C [5] was 101 % of control.
With `COc1ccc(C(SCC(N)C(=O)O)(c2ccccc2)c2ccc(OC)cc2)cc1` (configuration not stated) the T/C (dose: 3.13 mg/kg/injection, schedule: Q01DX009 (ip), vehicle: saline) was 98 % of control, the T/C [8] was 120 % of control and the T/C (dose: 6.3 mg/kg/injection, schedule: Q01DX009 (ip), vehicle: other) was 110 % of control. The T/C (dose: 12.5 mg/kg/injection, schedule: Q01DX009 (ip), vehicle: other) was 117 % of control, the T/C [1] was 158 % of control and the T/C [2] was 96 % of control.
`Oc1cc2ccc3c(c2cc1O)CCc1cn[nH]c1-3` was tested, and the T/C [9] was 92 % of control and the T/C (dose: 400.0 mg/kg/injection, schedule: Q01DX001 (ip), vehicle: saline with Tween-80) was 92 % of control.
In the case of `O=C(OCCOCCN1CCCCC1)N1c2ccccc2Sc2cccnc21`, the T/C (dose: 5.0 mg/kg/injection, schedule: Q01DX001 (ip), vehicle: saline) is reported as 104 % of control, the T/C [8] is reported as 102 % of control and the T/C (dose: 10.0 mg/kg/injection, schedule: Q01DX001 (ip), vehicle: saline) is reported as 101 % of control. The T/C (dose: 12.5 mg/kg/injection, schedule: Q01DX009 (ip), vehicle: saline) was 107 % of control, the T/C (dose: 20.0 mg/kg/injection, schedule: Q01DX001 (ip), vehicle: saline) was 98 % of control and the T/C [1] was 103 % of control. For the same compound, the T/C (dose: 25.0 mg/kg/injection, schedule: Q04DX003 (ip), vehicle: saline) was 106 % of control, the T/C (dose: 40.0 mg/kg/injection, schedule: Q01DX001 (ip), vehicle: saline) was 101 % of control and the T/C [2] was 101 % of control. The T/C (dose: 50.0 mg/kg/injection, schedule: Q04DX003 (ip), vehicle: saline) was 111 % of control, the T/C (dose: 80.0 mg/kg/injection, schedule: Q01DX001 (ip), vehicle: saline) was 101 % of control and the T/C [5] was 98 % of control. The T/C [3] was 106 % of control.
`O=C(O)CCNC(=O)CNC(=O)OCc1ccccc1` was tested, and the T/C [10] was 98 % of control, the T/C [11] was 100 % of control and the T/C (dose: 300.0 mg/kg/injection, schedule: Q01DX009 (ip), vehicle: Klucel (hydroxypropylcellulose) (HPC)) was 98 % of control.
With `Cc1ccc([N+](=O)[O-])c(OC(=O)Nc2ccccc2Cl)c1` the T/C [10] was 105 % of control, the T/C [12] was 100 % of control and the T/C [11] was 100 % of control. The T/C [13] was 97 % of control, the T/C [14] was 107 % of control and the T/C (dose: 400.0 mg/kg/injection, schedule: Q04DX003 (ip), vehicle: Klucel (hydroxypropylcellulose) (HPC)) was 100 % of control.
`Cc1cc(=O)oc2cc(OC(=O)Nc3cccc(Cl)c3Cl)ccc12` was tested, and the T/C [15] was 89 % of control, the T/C [16] was 93 % of control and the T/C [10] was 98 % of control.
`CNc1ccc(/C=C2\C=Cc3ccccc32)cc1` was tested, and the T/C (dose: 12.0 mg/kg/injection, schedule: Q01DX Z (ip), vehicle: carboxymethylcellulose (CMC)) was 95 % of control, the T/C (dose: 25.0 mg/kg/injection, schedule: Q01DX Z (ip), vehicle: carboxymethylcellulose (CMC)) was 98 % of control and the T/C (dose: 50.0 mg/kg/injection, schedule: Q01DX001 (ip), vehicle: carboxymethylcellulose (CMC)) was 101 % of control. The T/C (dose: 50.0 mg/kg/injection, schedule: Q01DX Z (ip), vehicle: carboxymethylcellulose (CMC)) was 120 % of control, the T/C (dose: 100.0 mg/kg/injection, schedule: Q01DX001 (ip), vehicle: carboxymethylcellulose (CMC)) was 101 % of control and the T/C (dose: 100.0 mg/kg/injection, schedule: Q01DX Z (ip), vehicle: carboxymethylcellulose (CMC)) was 93 % of control. The T/C (dose: 200.0 mg/kg/injection, schedule: Q01DX001 (ip), vehicle: carboxymethylcellulose (CMC)) was 108 % of control, the T/C (dose: 200.0 mg/kg/injection, schedule: Q01DX Z (ip), vehicle: carboxymethylcellulose (CMC)) was 98 % of control and the T/C (dose: 400.0 mg/kg/injection, schedule: Q01DX001 (ip), vehicle: carboxymethylcellulose (CMC)) was 100 % of control.
`COc1cc(N)ccc1NC(=O)c1ccccc1` was tested, and the T/C (dose: 12.5 mg/kg/injection, schedule: Q01DX001 (ip), vehicle: carboxymethylcellulose (CMC)) was 117 % of control and the T/C (dose: 25.0 mg/kg/injection, schedule: Q01DX001 (ip), vehicle: carboxymethylcellulose (CMC)) was 106 % of control.
`O=c1[nH]nnc2ncn(C3OC(CO)C(O)C3O)c12` (configuration not stated) was tested, and the T/C (dose: 100.0 mg/kg/injection, schedule: Q01DX005 (ip), vehicle: saline) was 91 % of control and the T/C (dose: 200.0 mg/kg/injection, schedule: Q01DX005 (ip), vehicle: saline) was 87 % of control.
`COc1ccc(Cl)cc1` was tested, and the T/C [17] was 92 % of control and the T/C [18] was 90 % of control.
`CN(C)c1ccc(C=Nc2ccc(Cc3ccncc3)cc2)cc1` was tested, and the T/C [10] was 99 % of control, the T/C [11] was 98 % of control and the T/C [14] was 100 % of control.
With `Brc1ccc2[nH]cc(/C=N/Nc3nnc(N/N=C/c4c[nH]c5ccc(Br)cc45)c4ccccc34)c2c1` the T/C [4] was 101 % of control.
In the case of `N/N=C\C(=N/N)C(O)C(O)C(O)CO` (configuration not stated), the T/C (dose: 25.0 mg/kg/injection, schedule: Q01DX001 (ip), vehicle: saline with Tween-80) is reported as 93 % of control, the T/C (dose: 50.0 mg/kg/injection, schedule: Q01DX001 (ip), vehicle: saline with Tween-80) is reported as 90 % of control and the T/C [9] is reported as 87 % of control.
With `CC(=O)Nc1nc(C)c(CCCN(Cc2ccccc2)C(C)=O)c(=O)[nH]1` the T/C (dose: 75.0 mg/kg/injection, schedule: Q01DX001 (ip), vehicle: Klucel (hydroxypropylcellulose) (HPC)) was 96 % of control, the T/C (dose: 150.0 mg/kg/injection, schedule: Q01DX001 (ip), vehicle: Klucel (hydroxypropylcellulose) (HPC)) was 99 % of control and the T/C (dose: 300.0 mg/kg/injection, schedule: Q01DX001 (ip), vehicle: Klucel (hydroxypropylcellulose) (HPC)) was 92 % of control.
For `NC(=S)N/N=C1\COC(C(F)(F)F)(C(F)(F)F)C1`, the T/C (dose: 12.5 mg/kg/injection, schedule: Q01DX009 (ip), vehicle: Klucel (hydroxypropylcellulose) (HPC)) was 100 % of control, the T/C [15] was 97 % of control and the T/C [16] was 96 % of control. The T/C [10] was 97 % of control and 100 % of control, the T/C [12] was 103 % of control and the T/C [13] was 105 % of control.
`CC(O)c1cccc(NC(=O)NC2CCCCC2)c1` (configuration not stated) was tested, and the T/C [10] was 95 % of control, the T/C [11] was 101 % of control and the T/C [14] was 95 % of control.
For `COc1ccc(C(=O)/C=C/c2ccc(C(C)C)cc2)cc1`, the T/C (dose: 75.0 mg/kg/injection, schedule: Q04DX003 (ip), vehicle: saline) was 94 % of control, the T/C (dose: 150.0 mg/kg/injection, schedule: Q04DX003 (ip), vehicle: saline) was 100 % of control and the T/C (dose: 300.0 mg/kg/injection, schedule: Q04DX003 (ip), vehicle: saline) was 89 % of control.
For `Cc1cc(=O)[nH]c(O)c1C#N`, the T/C [17] was 98 % of control, the T/C [18] was 108 % of control and the T/C (dose: 400.0 mg/kg/injection, schedule: Q01DX009 (ip), vehicle: saline with Tween-80) was 98 % of control.
